Patent publication US10584115B2, “Substituted pyridine and pyrazine BMI-1 inhibitors” (PTC Therapeutics, Inc., priority 2013, dated 2020)

What follows are compounds tested on Bmi-1 protein (assay: Sandwich ELISA Assay (Bmi-1 protein level in HT-1080 cells after compound treatment)). Conditions: Table 1, Bmi-1 sandwich ELISA, read-out: ELISA EC50 value for Bmi-1 protein.
Assay type: cell-based
Summary of the method: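 HT-1080 cells exposed to compounds for 40–48 h at 37 °C (0.5% DMSO final), then lysed. Bmi-1 in lysates measured by sandwich ELISA (mouse monoclonal capture, rabbit anti-Bmi-1 detection, HRP anti-rabbit, TMB), read at OD450 with OD570 reference against a recombinant Bmi-1 standard curve (0–8000 pg/mL).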

Row | SMILES | EC50 [nM]
1 | COc1ccc(Nc2cc(-n3c(C)ccc3C)cc(-n3c(C)nc4ccccc43)n2)cc1 [compound 577, 4-(2,5-dimethyl-1H-pyrrol-1-yl)-N-(4-methoxyphenyl)-6-(2-methyl-1H-benzimidazol-1-yl)pyridin-2-amine] | 100 to 3000
2 | Cc1nc2cc(F)c(F)cc2n1-c1cncc(Nc2ccc3c(c2)OC(F)(F)O3)n1 [compound 579, N-(2,2-difluoro-1,3-benzodioxol-5-yl)-6-(5,6-difluoro-2-methyl-1H-benzimidazol-1-yl)pyrazin-2-amine] | 100 to 3000
3 | COc1ccc(Nc2cc(C#N)cc(-n3c(C)nc4cc(F)c(F)cc43)n2)cc1 [compound 583, 2-(5,6-difluoro-2-methyl-1H-benzimidazol-1-yl)-6-[(4-methoxyphenyl)amino]pyridine-4-carbonitrile] | 1 to 10
4 | Cc1nc2ccc(F)cc2n1-c1cc(C#N)cc(Nc2ccc(OC(F)(F)F)cc2)n1 [compound 588, 2-(6-fluoro-2-methyl-1H-benzimidazol-1-yl)-6-{[4-(trifluoromethoxy)phenyl]amino}pyridine-4-carbonitrile] | 10 to 100
5 | COc1ccc(Nc2cc(C#N)cc(-n3c(C)nc4ccc(F)cc43)n2)cc1 [compound 589, 2-(6-fluoro-2-methyl-1H-benzimidazol-1-yl)-6-[(4-methoxyphenyl)amino]pyridine-4-carbonitrile] | 10 to 100
6 | Cc1ccc(Nc2cc(C#N)cc(-n3c(C)nc4cc(F)c(F)cc43)n2)cc1 [compound 599, 2-(5,6-difluoro-2-methyl-1H-benzimidazol-1-yl)-6-[(4-methylphenyl)amino]pyridine-4-carbonitrile] | 10 to 100
7 | Cc1nc2cc(F)c(F)cc2n1-c1cc(C#N)cc(Nc2ccc(Cl)cc2)n1 [compound 600, 2-[(4-chlorophenyl)amino]-6-(5,6-difluoro-2-methyl-1H-benzimidazol-1-yl)pyridine-4-carbonitrile] | 10 to 100
8 | Cc1nc2cc(F)c(F)cc2n1-c1cccc(Nc2ccc(C(F)(F)F)cc2)n1 [compound 601, 6-(5,6-difluoro-2-methyl-1H-benzimidazol-1-yl)-N-[4-(trifluoromethyl)phenyl]pyridin-2-amine] | 10 to 100
9 | Cc1nc2cc(F)c(F)cc2n1-c1cccc(Nc2ccc(OC(F)F)cc2)n1 [compound 602, N-[4-(difluoromethoxy)phenyl]-6-(5,6-difluoro-2-methyl-1H-benzimidazol-1-yl)pyridin-2-amine] | 10 to 100
10 | Cc1nc2cc(F)c(F)cc2n1-c1cccc(Nc2ccc(OC(F)(F)F)cc2)n1 [compound 603, 6-(5,6-difluoro-2-methyl-1H-benzimidazol-1-yl)-N-[4-(trifluoromethoxy)phenyl]pyridin-2-amine] | 100 to 3000
11 | Cc1nc2ccccc2n1-c1cc(N)cc(Nc2ccc(OC(F)(F)F)cc2)n1 [compound 604] | 100 to 3000
12 | Cc1ccc(Nc2cc(C#N)cc(-n3c(C)nc4ccc(F)cc43)n2)cc1 [compound 611, 2-(6-fluoro-2-methyl-1H-benzimidazol-1-yl)-6-[(4-methylphenyl)amino]pyridine-4-carbonitrile] | 1 to 10
13 | Cc1nc2ccc(F)cc2n1-c1cc(C#N)cc(Nc2ccc(Cl)cc2)n1 [compound 612, 2-[(4-chlorophenyl)amino]-6-(6-fluoro-2-methyl-1H-benzimidazol-1-yl)pyridine-4-carbonitrile] | 10 to 100
14 | COc1ccc(Nc2cccc(-n3c(C)nc4cc(F)c(F)cc43)n2)cc1 [compound 613, 6-(5,6-difluoro-2-methyl-1H-benzimidazol-1-yl)-N-(4-methoxyphenyl)pyridin-2-amine] | 10 to 100
15 | Cc1ccc(Nc2cccc(-n3c(C)nc4cc(F)c(F)cc43)n2)cc1 [compound 614, 6-(5,6-difluoro-2-methyl-1H-benzimidazol-1-yl)-N-(4-methylphenyl)pyridin-2-amine] | 10 to 100
16 | Cc1nc2cc(F)c(F)cc2n1-c1cccc(Nc2ccc(Cl)cc2)n1 [compound 615, N-(4-chlorophenyl)-6-(5,6-difluoro-2-methyl-1H-benzimidazol-1-yl)pyridin-2-amine] | 100 to 3000
17 | Cc1ccc(Nc2cc(-n3c(C)ccc3C)cc(-n3c(C)nc4ccccc43)n2)cc1 [compound 617, 4-(2,5-dimethyl-1H-pyrrol-1-yl)-6-(2-methyl-1H-benzimidazol-1-yl)-N-(4-methylphenyl)pyridin-2-amine] | 10 to 100
18 | Cc1ccc(C)n1-c1cc(Nc2ccc(Cl)cc2)nc(-n2c(C)nc3ccccc32)c1 [compound 618, N-(4-chlorophenyl)-4-(2,5-dimethyl-1H-pyrrol-1-yl)-6-(2-methyl-1H-benzimidazol-1-yl)pyridin-2-amine] | 100 to 3000

Continued, values first:

Row | EC50 [nM] | SMILES
19 | 1 to 10 | Cc1ccc(Nc2cncc(-n3c(C)nc4ccccc43)n2)cc1 [compound 562, 6-(2-methyl-1H-benzimidazol-1-yl)-N-(4-methylphenyl)pyrazin-2-amine]
20 | 10 to 100 | Cc1ccc(Nc2cncc(-n3c(C)nc4ccccc43)n2)c(N)c1 [compound 563, 4-methyl-N^1-[6-(2-methyl-1H-benzimidazol-1-yl)pyrazin-2-yl]benzene-1,2-diamine]
21 | 100 to 3000 | Cc1nn2ccccc2c1-c1cncc(Nc2ccccc2)n1 [compound 564, 6-(2-methylpyrazolo[1,5-a]pyridin-3-yl)-N-phenylpyrazin-2-amine]
22 | < 1 | COc1ccc(Nc2cncc(-c3c(C)nn4ccccc34)n2)cc1 [compound 565, N-(4-methoxyphenyl)-6-(2-methylpyrazolo[1,5-a]pyridin-3-yl)pyrazin-2-amine]
23 | 1 to 10 | Cc1ccc(Nc2cncc(-c3c(C)nn4ccccc34)n2)cc1 [compound 566, N-(4-methylphenyl)-6-(2-methylpyrazolo[1,5-a]pyridin-3-yl)pyrazin-2-amine]
24 | 10 to 100 | Cc1nn2ccccc2c1-c1cncc(Nc2ccc(Cl)cc2)n1 [compound 567, N-(4-chlorophenyl)-6-(2-methylpyrazolo[1,5-a]pyridin-3-yl)pyrazin-2-amine]
25 | 100 to 3000 | Cc1nn2ccccc2c1-c1cncc(Nc2ccc(F)cc2)n1 [compound 568, N-(4-fluorophenyl)-6-(2-methylpyrazolo[1,5-a]pyridin-3-yl)pyrazin-2-amine]
26 | 10 to 100 | COc1cccc(Nc2cncc(-c3c(C)nn4ccccc34)n2)c1 [compound 569, N-(3-methoxyphenyl)-6-(2-methylpyrazolo[1,5-a]pyridin-3-yl)pyrazin-2-amine]
27 | 100 to 3000 | Cc1nn2ccccc2c1-c1cncc(Nc2cccc(Cl)c2)n1 [compound 570, N-(3-chlorophenyl)-6-(2-methylpyrazolo[1,5-a]pyridin-3-yl)pyrazin-2-amine]
28 | 10 to 100 | Cc1nn2ccccc2c1-c1cncc(Nc2ccc(C#N)cc2)n1 [compound 571, 4-{[6-(2-methylpyrazolo[1,5-a]pyridin-3-yl)pyrazin-2-yl]amino}benzonitrile]
29 | 1 to 10 | COC(=O)c1ccc(Nc2cncc(-c3c(C)nn4ccccc34)n2)cc1 [compound 572, methyl 4-{[6-(2-methylpyrazolo[1,5-a]pyridin-3-yl)pyrazin-2-yl]amino}benzoate]
30 | 100 to 3000 | COc1ccc(Nc2cncc(-n3c(C)nc4cc(F)c(F)cc43)n2)cc1 [compound 573, 6-(5,6-difluoro-2-methyl-1H-benzimidazol-1-yl)-N-(4-methoxyphenyl)pyrazin-2-amine]
31 | 100 to 3000 | Cc1ccc(Nc2cncc(-n3c(C)nc4cc(F)c(F)cc43)n2)cc1 [compound 574, 6-(5,6-difluoro-2-methyl-1H-benzimidazol-1-yl)-N-(4-methylphenyl)pyrazin-2-amine]
32 | 10 to 100 | Cc1nc2cc(F)c(F)cc2n1-c1cncc(Nc2ccc(Cl)cc2)n1 [compound 575, N-(4-chlorophenyl)-6-(5,6-difluoro-2-methyl-1H-benzimidazol-1-yl)pyrazin-2-amine]
33 | 100 to 3000 | COc1cc(C)ccc1Nc1cncc(-n2c(C)nc3ccccc32)n1 [compound 576, N-(2-methoxy-4-methylphenyl)-6-(2-methyl-1H-benzimidazol-1-yl)pyrazin-2-amine]
34 | 100 to 3000 | COc1cccc(Nc2cncc(-n3c(C)nc4cc(F)c(F)cc43)n2)c1 [compound 578, 6-(5,6-difluoro-2-methyl-1H-benzimidazol-1-yl)-N-(3-methoxyphenyl)pyrazin-2-amine]
35 | 10 to 100 | COc1ccc(Nc2cc(N)cc(-n3c(C)nc4ccccc43)n2)cc1 [compound 580, N^2-(4-methoxyphenyl)-6-(2-methyl-1H-benzimidazol-1-yl)pyridine-2,4-diamine]
36 | 1 to 10 | Cc1ccc(Nc2cncc(-n3c(C)nc4ccccc43)n2)c(O)c1 [compound 582, 5-methyl-2-{[6-(2-methyl-1H-benzimidazol-1-yl)pyrazin-2-yl]amino}phenol]
37 | < 1 | COc1ccc(Nc2cncc(-c3c(C)nc4ccc(F)cn34)n2)cc1 [compound 592, 6-(6-fluoro-2-methylimidazo[1,2-a]pyridin-3-yl)-N-(4-methoxyphenyl)pyrazin-2-amine]
38 | 100 to 3000 | Cc1nc2ccccc2n1-c1cc(N)cc(Nc2ccc(F)cc2)n1 [compound 605, N^2-(4-fluorophenyl)-6-(2-methyl-1H-benzimidazol-1-yl)pyridine-2,4-diamine]
39 | 1 to 10 | Cc1nc2ccccc2n1-c1cncc(Nc2ccc(Br)cc2)n1 [compound 616, N-(4-bromophenyl)-6-(2-methyl-1H-benzimidazol-1-yl)pyrazin-2-amine]
40 | 1 to 10 | Cc1nc2ccccc2n1-c1cncc(Nc2ccc(I)cc2)n1 [compound 619, N-(4-iodophenyl)-6-(2-methyl-1H-benzimidazol-1-yl)pyrazin-2-amine]
41 | 100 to 3000 | CCc1nc2ccc(F)cc2n1-c1cncc(Nc2ccccc2)n1 [compound 620, 6-(2-ethyl-6-fluoro-1H-benzimidazol-1-yl)-N-phenylpyrazin-2-amine]
42 | < 1 | CCc1nn2ccccc2c1-c1cncc(Nc2ccc(OC)cc2)n1 [compound 627, 6-(2-ethylpyrazolo[1,5-a]pyridin-3-yl)-N-(4-methoxyphenyl)pyrazin-2-amine]
